Read-outs that look alike come from different tables or passages of the source.
Experiments:
Format in all cases: cell-based
[1] = system: T47D cells expressing mutant PI3Ka (H1047R); test: In vitro cell proliferation, T47D cells (CellTiter-Glo); details: inhibition of proliferation, read-out: Avg T-47D EC50
Summary of the method: (§1)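 T47D (PI3Kα H1047R; RPMI, 10% FBS, insulin 0.2 units/mL) or SKBR3 (WT PI3Kα; McCoys 5a, 10% FBS) cells seeded at 1,500 cells/well on 10-point compound dilutions, grown 72 h at 37 °C. CellTiter-Glo luminescence; inhibition normalised to 0.1% DMSO and 10 uM alpelisib, EC50 from four-parameter fit.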

[2] = system: SKBR3 cells express WT PI3Ka; test: In vitro cell proliferation, SKBR3 cells (CellTiter-Glo); details: inhibition of proliferation
Summary of the method: as §1

[3] = system: phosphorylation of AKT (pAKT) in T47D cells expressing mutant PI3Ka (H1047R); test: In vitro cell pAKT (Ser473) HTRF, T47D cells; details: cellular pAKT, T47D cells, mutant PI3Ka (H1047R), 6 hours, read-out: Avg T-47D IC50
Summary of the method: (§2)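 Cells seeded on plates pre-stamped with 10-point compound dilutions, then grown 6 h at 37 °C (T47D in RPMI/10% FBS/insulin; SKBR3 in McCoy's 5a/10% FBS). Lysates read for pAKT Ser473 by HTRF after overnight antibody incubation. Inhibition normalised to 0.1% DMSO and 10 uM alpelisib; IC50 by four-parameter fit.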

[4] = system: phosphorylation of AKT (pAKT) in SKBR3 cells express WT PI3Ka; test: In vitro cell pAKT (Ser473) HTRF, SKBR3 cells; details: cellular pAKT
Summary of the method: as §2

EC50 ([1]; 72 hours)	EC50 ([2]; 72 hours)	IC50 [3]	IC50 ([4]; 6 hours)	EC50 ([1]; Homo sapiens, T47D, 72 h)	EC50 ([2]; Homo sapiens, SK-BR-3, 72 h)	IC50 ([3]; Homo sapiens, T47D, 6 h)	IC50 ([4]; Homo sapiens, SK-BR-3, 6 h)	Structure (SMILES)
				2000 to 15000 nM	> 15000 nM	2000 to 15000 nM	> 15000 nM	Cc1cc([C@@H](C)Nc2ccccc2C(=O)O)c2cc(N3CCn4c(nnc4C4CC4)C3)n(C)c(=O)c2c1 [Example 445]
				1 to 500 nM	> 15000 nM	1 to 500 nM	> 15000 nM	Cc1cc([C@@H](C)Nc2ccccc2C(=O)O)c2cc(N3CCn4nc(C)cc4C3)n(C)c(=O)c2c1 [Example 446]
1 to 500 nM	> 15000 nM	1 to 500 nM	> 15000 nM					CC(Nc1ccccc1C(=O)O)c1cc(F)cc2c(=O)n(C)c(-c3ccc(OC4CC(F)C4)nc3)cc12 (centres unmarked) [Example 447]
1 to 500 nM	> 15000 nM	1 to 500 nM	> 15000 nM					CC(Nc1ccccc1C(=O)O)c1cc(F)cc2c(=O)n(C)c(-c3ccc(OC4CC(F)C4)nc3)cc12 (centres unmarked) [Example 448]
				1 to 500 nM	2000 to 15000 nM	1 to 500 nM	> 15000 nM	Cc1csc(N2CCN(c3cc4c([C@@H](C)Nc5ccccc5C(=O)O)cc(F)cc4c(=O)n3C)CC2)n1 [Example 453]
				1 to 500 nM	> 15000 nM	1 to 500 nM	> 15000 nM	C[C@@H](Nc1ccccc1C(=O)O)c1cc(F)cc2c(=O)n(C)c(C3CC3)cc12 [Example 455]
				1 to 500 nM	2000 to 15000 nM	1 to 500 nM	2000 to 15000 nM	Cc1ccc(N2CCN(c3cc4c([C@@H](C)Nc5cccc(F)c5C(=O)O)cc(F)cc4c(=O)n3C)CC2)c(C)n1 [Example 456]
				1 to 500 nM	> 15000 nM	1 to 500 nM	> 15000 nM	C[C@@H](Nc1ccccc1C(=O)O)c1cc(F)cc2c(=O)n(C)c(-c3cnc(OC4CC4)c(F)c3)cc12 [Example 458]
1 to 500 nM	500 to 2000 nM	1 to 500 nM	500 to 2000 nM					Cc1ccc(N2CCN(c3cc4c(C(C)Nc5ccccc5C(=O)O)cc(F)cc4c(=O)n3C)CC2)c(C)n1 (centres unmarked) [Example 460]
				1 to 500 nM	2000 to 15000 nM	1 to 500 nM	2000 to 15000 nM	Cc1ncncc1N1CCN(c2cc3c([C@@H](C)Nc4ccccc4C(=O)O)cc(F)cc3c(=O)n2C)CC1 [Example 465]
				1 to 500 nM	> 15000 nM	1 to 500 nM	2000 to 15000 nM	C[C@@H](Nc1ccccc1C(=O)O)c1cc(F)cc2c(=O)n(C)c(N3CCN(c4nccs4)CC3)cc12 [Example 466]

More lines, now with the values behind:

Structure (SMILES)	EC50 ([1]; 72 hours)	EC50 ([2]; 72 hours)	IC50 [3]	IC50 ([4]; 6 hours)	EC50 ([1]; Homo sapiens, T47D, 72 h)	EC50 ([2]; Homo sapiens, SK-BR-3, 72 h)	IC50 ([3]; Homo sapiens, T47D, 6 h)	IC50 ([4]; Homo sapiens, SK-BR-3, 6 h)
Cc1cc([C@@H](C)Nc2cccc(F)c2C(=O)O)c2cc(N3CCn4c(cnc4C)C3)n(C)c(=O)c2c1 [Example 438]	> 15000 nM	> 15000 nM	> 15000 nM	> 15000 nM				
Cc1cc([C@@H](C)Nc2cccc(F)c2C(=O)O)c2cc(N3CCc4c(cnn4C)C3)n(C)c(=O)c2c1 [Example 439]	500 to 2000 nM	> 15000 nM	500 to 2000 nM	> 15000 nM				
Cc1ncc(F)cc1-c1ncc(-c2cc3c([C@@H](C)Nc4cccc(F)c4C(=O)O)cc(F)cc3c(=O)n2C)cc1F [Example 440]					1 to 500 nM	> 15000 nM	1 to 500 nM	2000 to 15000 nM
C[C@@H](Nc1cccc(F)c1C(=O)O)c1cc(F)cc2c(=O)n(C)c(-c3ccc(OCC(F)(F)F)nc3)cc12 [Example 441]	500 to 2000 nM	> 15000 nM	1 to 500 nM	> 15000 nM				
C[C@@H](Nc1cccc(F)c1C(=O)O)c1cc(F)cc2c(=O)n(C)c(C3CC3)cc12 [Example 454]					1 to 500 nM	> 15000 nM	1 to 500 nM	> 15000 nM
CC(Nc1cccc(F)c1C(=O)O)c1cc(F)cc2c(=O)n(C)c(-c3ccc(OCC(F)F)nc3)cc12 (centres unmarked) [Example 457]	1 to 500 nM	> 15000 nM	1 to 500 nM	> 15000 nM				
Cc1ncc(-c2ncc(-c3cc4c(C(C)Nc5ccccc5C(=O)O)cc(F)cc4c(=O)n3C)cc2F)cc1F (centres unmarked) [Example 459]	1 to 500 nM	2000 to 15000 nM	1 to 500 nM	2000 to 15000 nM				
CC(Nc1ccccc1C(=O)O)c1cc(F)cc2c(=O)n(C)c(-c3ccc(OCC(F)F)nc3)cc12 (centres unmarked) [Example 462]	1 to 500 nM	> 15000 nM	1 to 500 nM	> 15000 nM				
C[C@@H](Nc1ccccc1C(=O)O)c1cc(F)cc2c(=O)n(C)c(N3C4CCC3CN(CC(F)(F)F)C4)cc12 [Example 464]					1 to 500 nM	2000 to 15000 nM	1 to 500 nM	2000 to 15000 nM
